pIC50: −log10 of the molar value. Read-outs that look alike come from different tables or passages of the source.
Target: T1, Zcchc11 enzyme (Homo sapiens, UniProt Q5TAX3)
T1 construct: made in house; host or cells: HEK293 cells (Zcchc11); E. coli Rosetta II (LIN28A)
T1 sequence (Q5TAX3 212-1420): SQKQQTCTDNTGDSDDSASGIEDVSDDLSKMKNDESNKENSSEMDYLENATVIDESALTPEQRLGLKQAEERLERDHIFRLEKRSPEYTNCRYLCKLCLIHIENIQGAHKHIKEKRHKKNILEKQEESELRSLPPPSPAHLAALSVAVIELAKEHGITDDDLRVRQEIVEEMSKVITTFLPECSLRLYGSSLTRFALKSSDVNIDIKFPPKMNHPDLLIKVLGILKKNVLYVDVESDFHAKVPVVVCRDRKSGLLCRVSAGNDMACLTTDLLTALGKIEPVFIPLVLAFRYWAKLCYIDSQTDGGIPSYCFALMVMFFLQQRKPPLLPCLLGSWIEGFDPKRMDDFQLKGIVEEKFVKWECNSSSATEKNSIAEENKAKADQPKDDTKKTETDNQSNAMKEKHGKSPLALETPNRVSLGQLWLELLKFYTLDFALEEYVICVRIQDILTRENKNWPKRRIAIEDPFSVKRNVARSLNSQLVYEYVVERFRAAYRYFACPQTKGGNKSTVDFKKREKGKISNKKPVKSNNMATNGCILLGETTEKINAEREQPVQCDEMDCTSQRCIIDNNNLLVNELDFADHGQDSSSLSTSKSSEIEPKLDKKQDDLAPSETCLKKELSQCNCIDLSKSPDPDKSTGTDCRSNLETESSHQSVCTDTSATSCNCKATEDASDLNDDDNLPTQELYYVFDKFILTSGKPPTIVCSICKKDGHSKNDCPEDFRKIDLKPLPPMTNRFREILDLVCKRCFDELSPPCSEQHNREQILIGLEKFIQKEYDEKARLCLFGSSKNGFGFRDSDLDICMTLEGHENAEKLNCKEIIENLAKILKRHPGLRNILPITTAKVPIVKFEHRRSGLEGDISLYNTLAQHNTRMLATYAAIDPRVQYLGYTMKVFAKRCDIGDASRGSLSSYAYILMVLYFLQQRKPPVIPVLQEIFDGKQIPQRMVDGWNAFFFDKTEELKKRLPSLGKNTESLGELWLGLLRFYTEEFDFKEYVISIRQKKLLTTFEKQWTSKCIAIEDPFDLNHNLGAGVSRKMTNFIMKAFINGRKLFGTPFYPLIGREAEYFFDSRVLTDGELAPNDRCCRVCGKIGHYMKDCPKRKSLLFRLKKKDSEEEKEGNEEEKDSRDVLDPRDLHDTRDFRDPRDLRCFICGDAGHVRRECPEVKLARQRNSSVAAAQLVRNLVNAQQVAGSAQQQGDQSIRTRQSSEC
Assay: TUTase assay (Zcchc11 assay, Lin28a-dependent polyuridylation of pre-let-7)
Format: biochemical
Conditions: read-out: Potency Lin28a-dep Z11 IC50
Procedure, shortened: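 Potency is measured as inhibition of LIN28A-driven U-tail addition to 2 nM pre-let-7 by 0.2 nM HEK293-derived Zcchc11 fragment with 5 uM UTP at room temperature. Tail growth appears as fluorescein quenching by an annealing rhodamine-A20 probe.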

[1] = LIN28A 10 nM, Zcchc11 0.2 nM, 5′-fluorescein pre-let-7 miRNA 2 nM, UTP 5 uM, room temperature, 30 minutes pre-incubation
[2] = Lin28a-dependent Zcchc11 (Z11) TUTase activity
[3] = Lin28a-dependent Zcchc11 (Z11) TUTase assay

| pIC50 [2] | pIC50 [3] | Structure (SMILES) | further results |
| --- | --- | --- | --- |
|  |  | COCC1CC(n2cc(C(=O)O)c(=O)c3cc(F)c(N4CCC[C@@H]4COc4ccccn4)cc32)C1 (stereo partly drawn) [Example 25, 6-fluoro-1-[3-(methoxymethyl)cyclobutyl]-4-oxo-7-[(2R)-2-[(pyridin-2-yloxy)methyl]pyrrolidin-1-yl]-1,4-dihydroquinoline-3-carboxylic acid] | pIC50 [1]: 4.30 to 5.00 |
| ≥ 6.00 |  | CN(C)C1CN(c2ccc(-n3cc(C(=O)O)c(=O)c4cc(Cl)c(N5C6CC6C[C@@H]5COc5nc(N)ccc5Cl)cc43)cn2)C1 (stereo partly drawn) [Compound 336, 7-[(3R)-3-{[(6-Amino-3-chloropyridin-2-yl)oxy]methyl}-2-azabicyclo [3.1.0]hexan-2-yl]-6-chloro-1-{6-[3-(dimethyl-amino)azetidin-1-yl]pyridin-3-yl}-4-oxoquinoline-3-carboxylic acid] |  |
|  |  | O=C(O)c1cn(-c2ccc(O)cc2F)c2cc(N3CCC[C@@H]3COc3ncccn3)c(F)cc2c1=O [Example 22, (R)-6-fluoro-1-(2-fluoro-4-hydroxyphenyl)-4-oxo-7-(2-((pyrimidin-2-yloxy)methyl)pyrrolidin-1-yl)-1,4-dihydroquinoline-3-carboxylic acid] | pIC50 [1]: 5.00 to 6.00 |
|  | ≥ 6.00 | CN(C)C1CN(c2ccc(-n3cc(C(=O)O)c(=O)c4cc(Cl)c(N5CC(c6ccccc6)C[C@@H]5COc5ncccc5Cl)cc43)cn2)C1 (stereo partly drawn) [Example 593, 6-chloro-7-((2R)-2-(((3-chloropyridin-2-yl)oxy)methyl)-4-phenyl-pyrrolidin-1-yl)-1-(6-(3-(dimethylamino)azetidin-1-yl)pyridin-3-yl)-4-oxo-1,4-dihydroquinoline-3-carboxylic acid] |  |
|  |  | O=C(O)c1cn(-c2ccc3c(c2)COC3)c2cc(N3CCC[C@@H]3COc3ncccc3Cl)c(Cl)cc2c1=O [Example 18, (R)-6-chloro-7-(2-(((3-chloropyridin-2-yl)oxy)methyl)pyrrolidin-1-yl)-1-(1,3-dihydroisobenzofuran-5-yl)-4-oxo-1,4-dihydroquinoline-3-carboxylic acid] | pIC50 [1]: ≥ 6.00 |
| ≥ 6.00 |  | CN(C)C1CN(c2cnc(-n3cc(C(=O)O)c(=O)c4cc(C#N)c(N5CCC[C@@H]5COc5ncccc5Cl)nc43)cn2)C1 [Compound 280, (R)-7-(2-(((3-chloropyridin-2-yl)oxy)methyl)pyrrolidin-1-yl)-6-cyano-1-(5-(3-(dimethyl-amino)azetidin-1-yl)pyrazin-2-yl)-4-oxo-1,4-dihydro-1,8-naphthyridine-3-carboxylic acid] |  |
| ≥ 6.00 |  | COc1ccc(COc2ccc(-n3cc(C(=O)O)c(=O)c4cc(F)c(N5CCC[C@@H]5COc5ccncn5)cc43)c(F)c2)cc1 [Compound 139, (R)-6-fluoro-1-(2-fluoro-4-((4-methoxy-benzyl)oxy)phenyl)-4-oxo-7-(2-((pyrimidin-4-yloxy)methyl)pyrrolidin-1-yl)-1,4-dihydro-quinoline-3-carboxylic acid] |  |
|  |  | O=C(O)c1cn(-c2cnc(O)cn2)c2cc(N3CCC[C@@H]3COc3ccccn3)c(Cl)cc2c1=O [Example 33, 6-chloro-1-(5-hydroxypyrazin-2-yl)-4-oxo-7-[(2R)-2-[(pyridin-2-yloxy)methyl]pyrrolidin-1-yl]-1,4-dihydroquinoline-3-carboxylic acid] | pIC50 [1]: ≥ 6.00 |
|  | ≥ 6.00 | CN(C)C1CN(c2ccc(-n3cc(C(=O)O)c(=O)c4cc(Cl)c(N5CCC[C@@H]5COc5ncccc5Cl)cc43)cn2)C1 [Example 476, (R)-6-chloro-7-(2-(((3-chloropyridin-2-yl)oxy)methyl)pyrrolidin-1-yl)-1-(6-(3-(dimethyl-amino)azetidin-1-yl)pyridin-3-yl)-4-oxo-1,4-dihydroquinoline-3-carboxylic acid] |  |
| ≥ 6.00 |  | Nc1ccc(-n2cc(C(=O)O)c(=O)c3cc(Cl)c(N4CCC[C@@H]4COc4ncccc4F)cc32)cn1 [Compound 214, 1-(6-Aminopyridin-3-yl)-6-chloro-7-[(2R)-2-{[(3-fluoropyridin-2-yl)oxy]methyl}pyrrolidin-1-yl]-4-oxoquinoline-3-carboxylic acid] |  |
|  | ≥ 6.00 | COc1ccnc(OC[C@H]2C[C@H]3C[C@H]3N2c2cc3c(cc2F)c(=O)c(C(=O)O)cn3-c2ccc(N3CC(N(C)C)C3)nc2)c1Cl [Example 673, 7-((1R,3R,5R)-3-(((3-chloro-4-methoxypyridin-2-yl)oxy)methyl)-2-azabicyclo[3.1.0]hexan-2-yl)-1-(6-(3-(dimethylamino)azetidin-1-yl)pyridin-3-yl)-6-fluoro-4-oxo-1,4-dihydroquinoline-3-carboxylic acid] |  |
| < 4.30 |  | O=C(O)c1cn(-c2ccc(Cl)c(O)c2)c2cc(N3CCC[C@@H]3COc3ncccc3Cl)ccc2c1=O [Compound 171, (R)-1-(4-chloro-3-hydroxy-phenyl)-7-(2-(((3-chloropyridin-2-yl)oxy)methyl)pyrrolidin-1-yl)-4-oxo-1,4-dihydro-quinoline-3-carboxylic acid] |  |
|  | ≥ 6.00 | O=C(O)c1cn(-c2ccc(O)c(Cl)c2)c2cc(N3CCC[C@@H]3COc3ccccn3)c(Cl)cc2c1=O [Example 409, (R)-6-chloro-1-(3-chloro-4-hydroxyphenyl)-4-oxo-7-(2-((pyridin-2-yloxy)methyl)pyrrolidin-1-yl)-1,4-dihydroquinoline-3-carboxylic acid] |  |
|  | ≥ 6.00 | Cc1cccnc1OC[C@H]1CCCN1c1cc2c(cc1F)c(=O)c(C(=O)O)cn2C1CC(O)C1 (stereo partly drawn) [Example 362, (R)-6-fluoro-1-(3-hydroxycyclo-butyl)-7-(2-(((3-methylpyridin-2-yl)oxy)methyl)pyrrolidin-1-yl)-4-oxo-1,4-dihydroquinoline-3-carboxylic acid] |  |
| ≥ 6.00 |  | CN(C)C1CN(c2ccc(-n3cc(C(=O)O)c(=O)c4cc(Cl)c(N5[C@@H](COc6nc(N)ccc6Cl)C[C@H]6C[C@H]65)cc43)cn2)C1 [Compound 339, 7-[(3R)-3-{[(6 Amino-3-chloropyridin-2-yl)oxy]methyl}-2-azabicyclo [3.1.0]hexan-2-yl]-6-chloro-1-{6-[3-(dimethyl-amino)azetidin-1-yl]pyridin-3-yl}-4-oxoquinoline-3-carboxylic acid] |  |
|  |  | CC1CCN(c2cc3c(cc2Cl)c(=O)c(C(=O)O)cn3-c2ccnc(N)c2)[C@H]1COc1nc(N(C)C)ccc1Cl (stereo partly drawn) [Example 65, 1-(2-aminopyridin-4-yl)-6-chloro-7-[(2R)-2-({[3-chloro-6-(dimethylamino)pyridin-2-yl]oxy}methyl)-3-methylpyrrolidin-1-yl]-4-oxoquinoline-3-carboxylic acid] | pIC50 [1]: ≥ 6.00 |
|  | ≥ 6.00 | CN(C)C1CN(c2ccc(-n3cc(C(=O)O)c(=O)c4cc(Cl)c(N5CC[C@@H](F)[C@@H]5COc5ncccc5Cl)cc43)cn2)C1 [Example 664, 6-chloro-7-((2S,3R)-2-(((3-chloropyridin-2-yl)oxy)methyl)-3-fluoropyrrolidin-1-yl)-1-(6-(3-(dimethylamino)azetidin-1-yl)pyridin-3-yl)-4-oxo-1,4-dihydroquinoline-3-carboxylic acid] |  |
|  | 4.30 to 5.00 | O=C(O)c1cn(-c2ccc(O)cc2C(F)(F)F)c2cc(N3CCC[C@@H]3COc3ccccn3)c(F)cc2c1=O [Example 383, (R)-6-fluoro-1-(4-hydroxy-2-(trifluoromethyl)phenyl)-4-oxo-7-(2-((pyridin-2-yloxy)methyl)pyrrolidin-1-yl)-1,4-dihydroquinoline-3-carboxylic acid] |  |
| ≥ 6.00 |  | COc1ccc(Cl)c(OC[C@H]2C[C@H]3C[C@H]3N2c2cc3c(cc2Cl)c(=O)c(C(=O)O)cn3-c2ccc(N(C)C)nc2)n1 [Compound 341, 6-Chloro-7-[(1R,3R,5R)-3-{[(3-chloro-6-methoxy-pyridin-2 yl)oxy]methyl}-2-azabicyclo [3.1.0]hexan-2-yl]-1-[6-(dimethyl-amino)pyridin-3-yl]-4-oxoquinoline-3-carboxylic acid] |  |

From patent publication US12662491B2 (Redona Therapeutics, Inc., priority 2020, dated 2026)
